Experimental data published in US8952024B2, “Herbicidal pyrimidone derivatives” (E I du Pont de Nemours and Company, priority 2009, dated 2015).

Key:
Format in all cases: in vivo
[1] = system: ducksalad (Heteranthera limosa); assay: Test B flooded paddy test
In short: (§1)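 Seedlings reaching 2 leaves are flooded 3 cm deep; test material is delivered to that water, which stays at the same depth. Plants remain in a greenhouse 13–15 days and are then scored by eye versus controls from 0 to 100.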

[2] = system: barnyardgrass (Echinochloa crus-galli); assay: Test B flooded paddy test
In short: as §1

[3] = system: rice (Oryza sativa); assay: Test B flooded paddy test
In short: as §1

[4] = system: umbrella sedge (Cyperus difformis); assay: Test B flooded paddy test
In short: as §1

[5] = system: barnyardgrass (Echinochloa crus-galli); assay: Test A pre-/postemergence plant response
Excerpt: (§2) Seeds of barnyardgrass (Echinochloa crus-galli), large crabgrass (Digitaria sanguinalis), giant foxtail (Setaria faberii), morningglory (Ipomoea spp.), pigweed (Amaranthus retroflexus), velvetleaf (Abutilon theophrasti), wheat (Triticum aestivum) and corn (Zea mays) were planted into a blend of loam soil and sand and treated preemergence with a directed soil spray using test chemicals formulated in a non-phytotoxic solvent mixture which included a surfactant. At the same time these species were also treated with postemergence applications of test compounds formulated in the same manner.
(§3) Plants ranged in height from two to ten cm and were in the one- to two-leaf stage for the postemergence treatment. Treated plants and untreated controls were maintained in a greenhouse for approximately ten days, after which time all treated plants were compared to untreated controls and visually evaluated for injury. Plant response ratings, summarized in Table A, are based on a 0 to 100 scale where 0 is no effect and 100 is complete control. A dash (-) response means no test result.

[6] = system: morningglory (Ipomoea spp.); assay: Test A pre-/postemergence plant response
Excerpt: as §2, §3

[7] = system: velvetleaf (Abutilon theophrasti); assay: Test A pre-/postemergence plant response
Excerpt: as §2, §3

[8] = system: corn (Zea mays); assay: Test A pre-/postemergence plant response
Excerpt: as §2, §3

[9] = system: giant foxtail (Setaria faberii); assay: Test A pre-/postemergence plant response
Excerpt: as §2, §3

[10] = system: pigweed (Amaranthus retroflexus); assay: Test A pre-/postemergence plant response
Excerpt: as §2, §3

[11] = system: wheat (Triticum aestivum); assay: Test A pre-/postemergence plant response
Excerpt: as §2, §3

[12] = system: large crabgrass (Digitaria sanguinalis); assay: Test A pre-/postemergence plant response
Excerpt: as §2, §3

[13] = 250 g ai/ha, flooded paddy test, visual rating on 0 to 100 scale (0 no effect, 100 complete control) after 13 to 15 days
[14] = Flood (flooded paddy test), 62 g ai/ha, scale of 0 to 100 where 0 is no effect and 100 is complete control, 13 to 15 days
[15] = Postemergence, 125 g ai/ha, 0 to 100 scale where 0 is no effect and 100 is complete control
[16] = Postemergence, 500 g ai/ha, 0 to 100 scale, 0 = no effect, 100 = complete control, approx. ten days
[17] = Preemergence, 125 g ai/ha, 0 to 100 scale, 0 = no effect, 100 = complete control
[18] = Preemergence, 500 g ai/ha, visual injury, 0 to 100 scale (0 no effect, 100 complete control), approx. ten days

COCCn1c(-c2cccc(Br)c2)ncc(C(=O)C2=C(O)CCCC2=O)c1=O [Compound 139]
Plant response rating, Flood, Ducksalad [1, 13]: 90 | Plant response rating, Ducksalad [1, 14]: 75 | Plant response rating, Flood, Barnyardgrass [2, 13]: 35 | Plant response rating, Barnyardgrass [2, 14]: 10 | Plant response rating, Flood, Rice [3, 13]: 30 | Plant response rating, Rice [3, 14]: 10 | Plant response rating, Flood, Sedge, Umbrella [4, 13]: 85 | Plant response rating, Sedge, Umbrella [4, 14]: 70 | Plant response rating, Barnyardgrass [5, 15]: 60 | Plant response rating, Barnyardgrass [5, 16]: 80 | Plant response rating, Barnyardgrass [5, 17]: 40 | Plant response rating, Barnyardgrass [5, 18]: 90 | Plant response rating, Morningglory [6, 15]: 100 | Plant response rating, Morningglory [6, 16]: 100 | Plant response rating, Morningglory [6, 17]: 0 | Plant response rating, Morningglory [6, 18]: 80 | Plant response rating, Velvetleaf [7, 15]: 100 | Plant response rating, Velvetleaf [7, 16]: 100 | Plant response rating, Velvetleaf [7, 17]: 60 | Plant response rating, Velvetleaf [7, 18]: 90 | Plant response rating, Corn [8, 15]: 20 | Plant response rating, Corn [8, 16]: 40 | Plant response rating, Corn [8, 17]: 0 | Plant response rating, Corn [8, 18]: 20 | Plant response rating, Foxtail, Giant [9, 15]: 50 | Plant response rating, Foxtail, Giant [9, 16]: 80 | Plant response rating, Foxtail, Giant [9, 17]: 20 | Plant response rating, Foxtail, Giant [9, 18]: 70 | Plant response rating, Pigweed [10, 15]: 90 | Plant response rating, Pigweed [10, 16]: 100 | Plant response rating, Pigweed [10, 17]: 70 | Plant response rating, Pigweed [10, 18]: 100 | Plant response rating, Wheat [11, 15]: 20 | Plant response rating, Wheat [11, 16]: 40 | Plant response rating, Wheat [11, 17]: 0 | Plant response rating, Wheat [11, 18]: 10 | Plant response rating, Crabgrass, Large [12, 15]: 70 | Plant response rating, Crabgrass, Large [12, 16]: 80 | Plant response rating, Crabgrass, Large [12, 17]: 90 | Plant response rating, Crabgrass, Large [12, 18]: 100
